From PubChem BioAssay (NCI)
Values joined by “and” are separate entries in the source; they are usually repeats but may differ in a detail not shown here. Identical values can stand only once.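 Protocol summary: plate cells (96-well), add compound at 5 concentrations, incubate 48 h, interpolate endpoints linearly. GI50 marks 50% less growth. At the TGI there is no net growth.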

System: RXF 393 renal
Experiment: growth of human tumour cells (NCI), 48 h

Row | Structure (SMILES) | TGI | GI50
1 | COc1cc2c(c3oc4c(O)cccc4c(=O)c13)CC(C(C)(O)CO)O2 (stereo unspecified) | 79.8 µM | –
2 | CC(=O)OC1OC([C@@H]2c3cccc(O)c3C(=O)c3c(O)cc(C)cc32)C(O)C(O)C1O (stereo partly specified) | 1.58 µM | 0.35 µM
3 | C[N+](C)(C)CC(=O)N/N=C(/CC(=O)CC(C1=C(O)c2ccccc2OC1)c1ccccc1)C(=O)Nc1cccc(Cl)c1 (stereo unspecified) | > 100 µM | –
4 | O=C1/C(=C/c2ccc(O)c(O)c2)CCC/C1=C\c1ccc(O)c(O)c1 | 9.5 µM | –
5 | COC(=O)/C=C1\S/C(=N\NC(=O)c2cc3ccc2/C=C\c2ccc(cc2)/C=C\3)N(c2ccccc2)C1=O | 3.86 µM | 1.52 µM
6 | COC([CH2][Hg][n]1cnc2c1c(=O)n(C)c(=O)n2C)CN1C(=O)c2ccccc2S1(=O)=O (stereo unspecified) | > 100 µM | > 100 µM
7 | CN1CCCCC1CCN1c2ccccc2Sc2ccc(Cl)cc21 (stereo unspecified) | 8.47 µM | 3.18 µM
8 | C=C(C)C(OC)C(O)CC1(C)CC(O)CC(C)(C2CCC3OC(C4(C)CCC(Br)C(C)(C)O4)CCC3(C)O2)O1 (stereo unspecified) | 40.4 µM | 18.3 µM
9 | Cc1cc(-c2nc(C(=O)Nc3cc4oc(N5CCOCC5)nc4nc3N3CC[C@@H](O)C3)co2)ccn1 | > 100 µM | 17.9 µM
10 | Cc1ccc(Cl)c2c(N=Nc3ccccc3[N+](=O)[O-])c(O)[nH]c12 | > 100 µM | –
11 | FC(F)(F)c1cccc(Nc2nc(-c3ccccc3)nc3ncccc23)c1 | 5.66 µM | 2.21 µM
12 | O=C(Nc1ccccc1)c1c(O)[nH]c(=S)[nH]c1=O | 96.3 µM and 68.9 µM | –
13 | OC1CSSC1Cn1cnc2c(Nc3ccc(OCc4cccc(F)c4)c(Cl)c3)ncnc21 (stereo unspecified) | 10.7 µM | 5.12 µM
14 | C=CCOc1ccc2c(C)cc(=O)oc2c1C | 63.9 µM | –
15 | Nc1c(C(=O)c2cccc(CCS(N)(=O)=O)c2)cnn1-c1ccc(F)cc1 | > 25 µM | > 25 µM
16 | C=CCO[C@H]1CO[C@H]2[C@@H]1OC[C@@H]2Oc1ccc(Nc2ccnc(Nc3ccc(O[C@H]4CO[C@H]5[C@@H]4OC[C@@H]5OCC=C)c(Cl)c3)n2)cc1Cl | 3.1 µM | 1.69 µM
17 | C[C@@H](Oc1cc(-n2cnc3ccc(CN4CCN(C)CC4)cc32)sc1C(N)=O)c1ccccc1C(F)(F)F | 10.2 µM and > 10 µM | < 0.0141 µM and 0.0224 µM
18 | O=C(CCNC12CC3CC(CC(C3)C1)C2)c1ccccc1 | 53.5 µM | –
19 | COc1cccc(-c2cc(-c3cccc(NS(C)(=O)=O)c3)nc(N)c2C#N)c1O | 1.39 µM | 0.104 µM
20 | Cc1ccsc1C(=S)Nc1ccc(Cl)c(/C=N/OC(C)(C)C)c1 | 36.6 µM | –
21 | CC(C)=CCC\C(C)=C/C=C/C(C)=C\C=C\C(C)=C/C=C/C=C(C)\C=C\C=C(C)/C=C/C=C(/C)CCC=C(C)C | > 100 µM | –
22 | NC(N)=NS(=O)(=O)c1ccc(Nc2c3ccccc3nc3c(C(=O)NCCO)cccc23)cc1 | – | 19.6 µM
23 | COc1cccc(C2c3cc4c(cc3OC(C)(N3CCCC3)C2C)OCO4)c1O (stereo unspecified) | > 40.6 µM | –
24 | O=C1NC(=NCCc2cccc(F)c2)S/C1=C\c1ccc2ncccc2c1 | > 25 µM | 4.4 µM
25 | COc1cc(/C=N\NC(=O)CN2CCN(c3cc4c(cc3F)c(=O)c(C(=O)N/N=C/c3cc(OC)c(OC)c(OC)c3)cn4C3CC3)CC2)cc(OC)c1OC | 30.4 µM | 1.63 µM
26 | CC1CCc2nc[nH]c(=O)c21 (stereo unspecified) | > 100 µM | > 100 µM
27 | Cc1ccc(NC(=O)Nc2ccc(-c3cccnc3)cc2N2CCC(CO)CC2)cc1 | 4.69 µM | 2.18 µM

System: SF-295 CNS
Experiment: growth of human tumour cells (NCI), 48 h

Row | Structure (SMILES) | GI50 | TGI
28 | CN(C)c1ccc(/C=C\C2=[N+](C)c3ccccc3C2(C)C)cc1 | 0.994 µM | > 23.6 µM
29 | COc1cc2c(c3oc4c(O)cccc4c(=O)c13)CC(C(C)(O)CO)O2 (stereo unspecified) | – | > 100 µM
30 | CC(=O)OC1OC([C@@H]2c3cccc(O)c3C(=O)c3c(O)cc(C)cc32)C(O)C(O)C1O (stereo partly specified) | < 0.0166 µM | 0.119 µM
31 | C[N+](C)(C)CC(=O)N/N=C(/CC(=O)CC(C1=C(O)c2ccccc2OC1)c1ccccc1)C(=O)Nc1cccc(Cl)c1 (stereo unspecified) | – | > 100 µM
32 | O=C1/C(=C/c2ccc(O)c(O)c2)CCC/C1=C\c1ccc(O)c(O)c1 | – | 22.1 µM
33 | COC(=O)/C=C1\S/C(=N\NC(=O)c2cc3ccc2/C=C\c2ccc(cc2)/C=C\3)N(c2ccccc2)C1=O | 2.07 µM | 4.19 µM
34 | COC([CH2][Hg][n]1cnc2c1c(=O)n(C)c(=O)n2C)CN1C(=O)c2ccccc2S1(=O)=O (stereo unspecified) | > 100 µM | > 100 µM
35 | CN1CCCCC1CCN1c2ccccc2Sc2ccc(Cl)cc21 (stereo unspecified) | 3.32 µM | 13.5 µM
36 | C=C(C)C(OC)C(O)CC1(C)CC(O)CC(C)(C2CCC3OC(C4(C)CCC(Br)C(C)(C)O4)CCC3(C)O2)O1 (stereo unspecified) | 22.7 µM | 62.2 µM
37 | Cc1cc(-c2nc(C(=O)Nc3cc4oc(N5CCOCC5)nc4nc3N3CC[C@@H](O)C3)co2)ccn1 | 87.5 µM | > 100 µM
38 | Cc1ccc(Cl)c2c(N=Nc3ccccc3[N+](=O)[O-])c(O)[nH]c12 | – | > 100 µM
39 | FC(F)(F)c1cccc(Nc2nc(-c3ccccc3)nc3ncccc23)c1 | 2.61 µM | 8.34 µM
40 | O=C(Nc1ccccc1)c1c(O)[nH]c(=S)[nH]c1=O | – | 108 µM
41 | OC1CSSC1Cn1cnc2c(Nc3ccc(OCc4cccc(F)c4)c(Cl)c3)ncnc21 (stereo unspecified) | 3.79 µM | 10.4 µM
42 | C=CCOc1ccc2c(C)cc(=O)oc2c1C | – | 58.5 µM
43 | Nc1c(C(=O)c2cccc(CCS(N)(=O)=O)c2)cnn1-c1ccc(F)cc1 | > 25 µM | > 25 µM
44 | C=CCO[C@H]1CO[C@H]2[C@@H]1OC[C@@H]2Oc1ccc(Nc2ccnc(Nc3ccc(O[C@H]4CO[C@H]5[C@@H]4OC[C@@H]5OCC=C)c(Cl)c3)n2)cc1Cl | 1.85 µM | 3.49 µM
45 | C[C@@H](Oc1cc(-n2cnc3ccc(CN4CCN(C)CC4)cc32)sc1C(N)=O)c1ccccc1C(F)(F)F | 0.0486 µM | > 10 µM
46 | O=C(CCNC12CC3CC(CC(C3)C1)C2)c1ccccc1 | – | 50.2 µM
47 | COc1cccc(-c2cc(-c3cccc(NS(C)(=O)=O)c3)nc(N)c2C#N)c1O | 0.0431 µM | 0.752 µM
48 | Cc1ccsc1C(=S)Nc1ccc(Cl)c(/C=N/OC(C)(C)C)c1 | – | > 100 µM
49 | CC(C)=CCC\C(C)=C/C=C/C(C)=C\C=C\C(C)=C/C=C/C=C(C)\C=C\C=C(C)/C=C/C=C(/C)CCC=C(C)C | – | > 100 µM
50 | NC(N)=NS(=O)(=O)c1ccc(Nc2c3ccccc3nc3c(C(=O)NCCO)cccc23)cc1 | 20.5 µM | 60.7 µM
51 | COc1cccc(C2c3cc4c(cc3OC(C)(N3CCCC3)C2C)OCO4)c1O (stereo unspecified) | – | 17.5 µM
52 | O=C1NC(=NCCc2cccc(F)c2)S/C1=C\c1ccc2ncccc2c1 | 2.56 µM | > 25 µM
53 | COc1cc(/C=N\NC(=O)CN2CCN(c3cc4c(cc3F)c(=O)c(C(=O)N/N=C/c3cc(OC)c(OC)c(OC)c3)cn4C3CC3)CC2)cc(OC)c1OC | 0.685 µM | 5.58 µM
54 | Cc1ccc(NC(=O)Nc2ccc(-c3cccnc3)cc2N2CCC(CO)CC2)cc1 | 2.53 µM | > 100 µM

System: SK-MEL-2 melanoma
Experiment: growth of human tumour cells (NCI), 48 h

Row | Structure (SMILES) | GI50 | TGI
55 | CN(C)c1ccc(/C=C\C2=[N+](C)c3ccccc3C2(C)C)cc1 | 1.31 µM | 43.2 µM
56 | COc1cc2c(c3oc4c(O)cccc4c(=O)c13)CC(C(C)(O)CO)O2 (stereo unspecified) | – | > 100 µM
57 | CC(=O)OC1OC([C@@H]2c3cccc(O)c3C(=O)c3c(O)cc(C)cc32)C(O)C(O)C1O (stereo partly specified) | 0.162 µM | 2.14 µM
58 | C[N+](C)(C)CC(=O)N/N=C(/CC(=O)CC(C1=C(O)c2ccccc2OC1)c1ccccc1)C(=O)Nc1cccc(Cl)c1 (stereo unspecified) | – | > 100 µM
59 | O=C1/C(=C/c2ccc(O)c(O)c2)CCC/C1=C\c1ccc(O)c(O)c1 | – | 13.1 µM
60 | COC(=O)/C=C1\S/C(=N\NC(=O)c2cc3ccc2/C=C\c2ccc(cc2)/C=C\3)N(c2ccccc2)C1=O | 2.65 µM | 7.76 µM
61 | COC([CH2][Hg][n]1cnc2c1c(=O)n(C)c(=O)n2C)CN1C(=O)c2ccccc2S1(=O)=O (stereo unspecified) | > 100 µM | > 100 µM
62 | CN1CCCCC1CCN1c2ccccc2Sc2ccc(Cl)cc21 (stereo unspecified) | 3.06 µM | 8.97 µM
63 | C=C(C)C(OC)C(O)CC1(C)CC(O)CC(C)(C2CCC3OC(C4(C)CCC(Br)C(C)(C)O4)CCC3(C)O2)O1 (stereo unspecified) | 18.1 µM | 36.5 µM
64 | Cc1cc(-c2nc(C(=O)Nc3cc4oc(N5CCOCC5)nc4nc3N3CC[C@@H](O)C3)co2)ccn1 | 23 µM | 99.8 µM
65 | Cc1ccc(Cl)c2c(N=Nc3ccccc3[N+](=O)[O-])c(O)[nH]c12 | – | > 100 µM
66 | FC(F)(F)c1cccc(Nc2nc(-c3ccccc3)nc3ncccc23)c1 | 6.57 µM | 25.5 µM
67 | O=C(Nc1ccccc1)c1c(O)[nH]c(=S)[nH]c1=O | 61.6 µM | 101 µM and 179 µM
68 | OC1CSSC1Cn1cnc2c(Nc3ccc(OCc4cccc(F)c4)c(Cl)c3)ncnc21 (stereo unspecified) | 0.997 µM | 3.26 µM
